Results as given in patent publication US20110053996A1, “Use of phenyltriazoles for controlling insects and spider mites by watering, droplet application or dip application or by treating seed” (Bayer CropScience AG, priority 2009, published 2011).

Experiments:
[1] = test system: Tetranychus urticae; assay: Tetranychus urticae test on bush beans; drench application; type: in vivo; conditions: bush bean plants, 0.25 mg of ai/plant, 14 days after infestation
Experimental: (§1) To produce a suitable preparation of active compound, 1 part by weight of active compound is mixed with the stated amounts of solvent and emulsifier, and the concentrate is diluted with water to the desired concentration.
Bush bean plants (Phaseolus vulgaris) are watered with the respective product solution. The stated concentration refers to the amount of active compound per plant. After about 1 week, the treated plants are infested with the greenhouse red spider mite (Tetranychus urticae).
After 2 weeks, the effect in % is determined. 100% means that all of the spider mites have been killed; 0% means that none of the spider mites have been killed.

[2] = test system: Liriomyza trifolii; assay: Liriomyza trifolii test on bush beans; drench application; type: in vivo; conditions: bush bean plants, 0.5 mg of ai/plant, 14 days after infestation
Experimental: as §1
Bush bean plants (Phaseolus vulgaris) are watered with the respective product solution. The stated concentration refers to the amount of active compound per plant. After about 1 week, the treated plants are infested with the leaf-mining fly (Liriomyza trifolii).
After 2 weeks, the effect in % is determined. 100% means that all of the leaf-mining flies have been killed; 0% means that none of the leaf-mining flies have been killed.

## Cc1cc(F)c(-n2nc(C(F)(F)F)nc2N)cc1[S+]([O-])CC(F)(F)F (centres unmarked) [(I-4)]
[1]
  % Activity (according to Abbott): 100%
[2]
  % Activity (according to Abbott): 100%
